Tests used:
[1] = molecular target: striatal A2-adenosine receptors; conditions: Barrington et al., 1989, cited from earlier work
[2] = tested on: striatal A2-adenosine receptors; experiment: Direct binding of 125I-PAPA-APEC to striatal A2-adenosine receptors in bovine brain; conditions: HPLC peak B
[3] = tested on: A2-adenosine receptors; experiment: Competitive binding assay in bovine brain using 125I-PAPA-APEC (striatal membranes); conditions: fluorescent probes; derivatives in general
Protocol: (§1) The filters were washed with three×3 ml aliquots of pH 7.2 buffer containing 50 mM HEPES, 10 mM Mg^+2, and 0.05% CHAPS. The filters were placed in polypropylene tubes and counted in a Packard gamma counter.

[4] = molecular target: T1, A2 adenosine receptors (Bos taurus, UniProt E1BKU0); experiment: Displacement of 125I-APNEA from bovine striatum A2 adenosine receptors; format: binding; set-up: bovine striatum A2 adenosine receptors; from tissue; host or cells: bovine striatum
From the text: FITC-APEC binding to bovine striatal membranes was saturable as illustrated by an isotherm representing bound ligand versus increasing concentrations of FITC-APEC (FIG. 1B).

[5] = molecular target: T1, A2 adenosine receptors; experiment: Competitive binding assay in bovine brain using 125I-PAPA-APEC (striatal membranes); set-up: Bovine striatal membranes; from tissue; host or cells: bovine (calf) striatal membranes; conditions: bovine striatum; 11, 12 and 14: apparent Ki; read-out: Ki, inhibition of binding of 125I-PAPA-APEC at A2-receptors
Protocol: as §1

[6] = molecular target: T2, adenosine A2 receptors (Bos taurus, UniProt E1BKU0); experiment: FITC-APEC fluorescent binding (association and saturation) to bovine striatal membranes
T2 construct: Striatal tissues obtained from bovine brain; tissue Pel-Freeze Biologicals, Rogers, Ark; host or cells: bovine striatal tissue
From the text: Compounds useful in fluorescent binding assays of adenosine A2 receptors in striatal membranes may be used to screen new ligands for affinity at these receptors, thus contributing to the development of new drugs specific or selective to this receptor. […] The following is an example.
Striatal tissues obtained from bovine brain (Pel-Freeze, Biologicals, Rogers, Ark.) were homogenized in 10 volumes of 0.32M sucrose using a Teflon pestle and glass tube (6-7 passes). The homogenate was centrifuged (4° C.) at 579×g (2,000 rpm) for 10 minutes 4° C.). The initial pellet (P1) was discarded and supernatant recentrifuged at 4° C. (16,000 rpm) for 1 hour. The resultant pellet (P2) was resuspended in ice-cold distilled water using a Brinkman Polytron (setting 6-7, for 3 seconds) and centrifuged (4° C.) at 37,059×g for 1 hour. The distilled water supernatant was decanted and the pellet was resuspended in buffer (50 mM TrisHCl, pH 7.4 at 4° C.) and centrifuged a final time for 1 hour. Tissue homogenates were […] at -80° C. for 1-3 days until binding assays were performed. Adenosine deaminase, (Boehringer Mannheim Biochemicals, Indianapolis, Ind.) from calf intestine was included (10 μ/mg protein, specific activity=200μ/mg) in the incubation media to eliminate endogenous adenosine. Protein quantities were assessed by using the Pierce BCA Protein Assay Reagent (Rockford, Ill.). Protein quantities were ~300μg/assay tube.
Fluorescence intensity (counts per second, cps) was measured using a SPEX Fluorolog Model 1680 0.22-m Double Spectrometer with DM3000 software (SPEX Industries, Edison, N.J.). Excitation and emission spectra were determined by comparing FITC-APEC (Compound 18, 1 μM) to buffer ([…] containing […], pH 7.4 or 8.1 at room temperature) or tissue suspension equivalent in concentration to that used for fluorescent ligand binding experiments. Excitation and emission maxima for FITC-APEC were 492 and 516 nm, respectively.
Association studies of FITC-APEC were performed by incubating (room temperature) striatal membranes in polypropylene tubes containing buffer (pH 7.4) and FITC-APEC (50 nM) for 5-120 minutes. […]
Quantitation (see McCabe et al. Faseb J., Vol. 4, pp 2934-2945, 1990) of FITC-APEC binding was performed by generating a standard line relating fluorescence intensity (cps) emitted to known concentrations (0.5-1024 nM) of FITC-APEC, in buffer ("free" ligand) or tissue suspension.
Bound ligand concentrations (μM) were estimated using linear regression analysis and mole quantities of FITC-APEC bound/mg protein were subsequently determined.

[7] = bovine striatal membranes, fluorescence, 90 min, room temperature

T2 sequence (E1BKU0 1-401): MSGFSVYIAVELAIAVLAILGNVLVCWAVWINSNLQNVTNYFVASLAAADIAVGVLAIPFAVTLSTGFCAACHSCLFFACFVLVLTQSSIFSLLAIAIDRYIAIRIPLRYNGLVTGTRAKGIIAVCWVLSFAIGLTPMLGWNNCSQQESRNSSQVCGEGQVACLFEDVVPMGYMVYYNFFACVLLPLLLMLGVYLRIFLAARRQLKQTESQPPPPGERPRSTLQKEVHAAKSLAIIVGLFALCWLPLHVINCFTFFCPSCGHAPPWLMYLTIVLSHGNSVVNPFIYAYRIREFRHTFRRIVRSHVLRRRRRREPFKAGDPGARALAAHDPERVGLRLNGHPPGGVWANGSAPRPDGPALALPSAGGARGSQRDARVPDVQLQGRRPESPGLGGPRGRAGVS
T1 sequence (E1BKU0 1-401): as above

Structure (SMILES) | Kd ([1]; bovine brain striatum) | degree of specific binding ([1]; striatal A2-adenosine receptors, bovine brain) | specific binding and A2 receptor pharmacology [2] | affinity at A2-adenosine receptors [3] | Ki [4] | Ki [5] | saturability of binding ([6]; bovine striatal membranes, 16-256 nM) | Bmax [6, 7] | Kd [6, 7] | time to binding equilibrium ([6]; bovine striatum, room temperature, FITC-APEC 50 nM)
CCNC(=O)[C@H]1O[C@@H](n2cnc3c(N)nc(NCCc4ccc(CCC(=O)NCCNC(=O)Cc5ccc(N)c([125I])c5)cc4)nc32)[C@H](O)[C@@H]1O [^125 I-PAPA-APEC] | 1.4 nM | 60-80% | display specific binding and the appropriate A2 receptor pharmacology |  |  |  |  |  |  | 
CCNC(=O)[C@H]1O[C@@H](n2cnc3c(N)nc(NCCc4ccc(CCC(=O)NCCNC(=S)Nc5ccc(-c6c7ccc(=O)cc-7oc7cc(O)ccc67)c(C(=O)O)c5)cc4)nc32)[C@H](O)[C@@H]1O [Compound 18] |  |  |  | high affinity | 59.8 ± 28 nM | 59.8 ± 28 nM | saturable | 2.26 pmol/mg protein | 54.6 nM | ≤ 90 min

Source: patent publication US5280015A, “2-substituted adenosines and 2-substituted adenosine 5'-carboxamides” (priority 1990, dated 1994)
